Test results: patent US20130210846A1, “USE OF NOVEL PAN-CDK INHIBITORS FOR TREATING TUMORS” (BAYER INTELLECTUAL PROPERTY GMBH, priority 2010, published 2013)

Assays:
[1] = tested on: PC3; assay: Proliferation assay PC3; assay type: cell-based; details: Homo sapiens, PC-3, 96 h; PC3, prostate carcinoma; 4 days, crystal violet
Method: (§1) Cultivated human tumor cells (originally obtained from ATCC, HeLa-MaTu and HeLa-MaTu-ADR, originally obtained from Epo GmbH, Berlin, Germany) were plated at a density of 1000 to 5000 cells/measuring point, depending on the growth rate of the cell line, in a 96-well multititer plate in 200 μl of growth medium (DMEM/HAMS F12, 2 mM L-glutamine, 10% fetal calf serum). After 24 hours the cells of one plate (zero-point plate) were stained with crystal violet (see below), whereas the medium of the other plates was replaced with fresh culture medium (200 μl), to which the test substances had been added at various concentrations (0 μM, and in the range 0.01-30 μM; the final concentration of the solvent dimethyl sulfoxide was 0.5%). The cells were incubated for 4 days in the presence of the test substances. Cellular proliferation was determined by staining the cells with crystal violet: the cells were fixed by adding 20 μl/measuring point of an 11% glutaraldehyde solution for 15 min at room temperature. After washing the fixed cells with water three times, the plates were dried at room temperature. The cells were stained by adding 100 μl/measuring point of a 0.1% crystal violet solution (pH adjusted to pH3 by adding acetic acid). After washing the stained cells with water three times, the plates were dried at room temperature. The dye was dissolved by adding 100 μl/measuring point of a 10% acetic acid solution. The extinction was determined photometrically at a wavelength of 595 nm. The percentage change in cell growth was calculated by standardization of the measured values to the extinction values of the zero-point plate (=0%) and the extinction of the untreated (0 μM) cells (=100%). The measured data were standardized to 0% inhibition (cell proliferation without inhibitor) and 100% inhibition (zero-point plate). The IC50 values were determined by means of a 4-parameter fit using the company's own software.
(§2) The substances were examined in the following cell lines which, in an exemplary manner, represent the stated indications: […]

[2] = tested on: HeLa; assay: Proliferation assay HeLa; assay type: cell-based; details: Homo sapiens, 96 h, cervix carcinoma, 4 days, crystal violet
Method: as §1, §2

[3] = tested on: A549; assay: Proliferation assay A549; assay type: cell-based; details: Homo sapiens, 96 h; A549, non-small-cell bronchial carcinoma; 4 days, crystal violet
Method: as §1, §2

[4] = target: T1, CDK1/CycB (Homo sapiens, UniProt P06493); assay: CDK1/CycB kinase assay (Assay 1); assay type: biochemical; details: 0.5 μM ATP, histon IIIS, 10 min 22° C.; read-out: CDK1/CycB (Assay 1) Concentration for half-maximal inhibition of the enzyme activity, IC50
T1 construct: purchased ProQinase GmbH, Freiburg, Germany; host or cells: baculovirus-infected insect cells (Sf9)
T1 sequence (P06493 whole entry): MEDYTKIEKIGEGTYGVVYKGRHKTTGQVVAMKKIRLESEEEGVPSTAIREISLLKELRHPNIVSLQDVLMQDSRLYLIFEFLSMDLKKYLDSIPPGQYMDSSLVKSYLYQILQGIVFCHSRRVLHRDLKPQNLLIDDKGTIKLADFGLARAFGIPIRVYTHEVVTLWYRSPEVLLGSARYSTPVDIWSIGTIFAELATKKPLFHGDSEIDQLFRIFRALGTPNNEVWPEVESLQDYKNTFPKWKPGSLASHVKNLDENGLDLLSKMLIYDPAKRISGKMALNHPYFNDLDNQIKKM
T1 sequence (P14635 whole entry partner): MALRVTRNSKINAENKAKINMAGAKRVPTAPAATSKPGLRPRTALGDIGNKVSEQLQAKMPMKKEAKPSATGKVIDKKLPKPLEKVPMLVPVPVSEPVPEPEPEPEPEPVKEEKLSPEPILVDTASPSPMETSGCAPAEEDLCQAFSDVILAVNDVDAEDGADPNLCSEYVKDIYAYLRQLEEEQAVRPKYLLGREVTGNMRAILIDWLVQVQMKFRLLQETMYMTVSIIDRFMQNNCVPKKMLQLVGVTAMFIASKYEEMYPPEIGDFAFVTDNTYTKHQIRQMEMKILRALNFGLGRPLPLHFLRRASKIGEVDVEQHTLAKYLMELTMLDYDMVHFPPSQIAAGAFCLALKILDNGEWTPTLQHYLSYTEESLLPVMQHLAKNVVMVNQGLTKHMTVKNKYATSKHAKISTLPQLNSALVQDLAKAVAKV
Method: Recombinant CDK1 and CycB-GST fusion proteins, purified from baculovirus-infected insect cells (Sf9), were purchased from ProQinase GmbH, Freiburg, Germany. The histon HIS used as kinase substrate is commercially available from Sigma.
CDK1/CycB (200 ng/measuring point) was incubated for 10 min at 22° C. in the presence of various concentrations of test substances (0 μM, and within the range 0.01-100 μM) in assay buffer [50 mM Tris/HCl pH8.0, 10 mM MgCl2, 0.1 mM Na ortho-vanadate, 1.0 mM dithiothreitol, 0.5 μM adenosine triphosphate (ATP), 10 μg/measuring point histon IIIS, 0.2 μCi/measuring point ^33P-gamma ATP, 0.05% NP40, 1.25% dimethyl sulfoxide]. The reaction was stopped by adding EDTA solution (250 mM, pH 8.0, 15 μl/measuring point).
From each reaction mixture, 15 μl were applied to P30 filter strips (from Wallac), and unincorporated ^33P-ATP was removed by washing the filter strips three times, for 10 min each time, in 0.5% phosphoric acid. After drying the filter strips for 1 hour at 70° C., the filter strips were covered with scintillator strips (MeltiLex™ A, from Wallac) and stoved for 1 hour at 90° C. The amount of incorporated ^33P (substrate phosphorylation) was determined by scintillation measurement in a gamma-radiation measuring instrument (Wallac). The measured data were standardized to 0% inhibition (enzyme reaction without inhibitor) and 100% inhibition (all assay components except enzyme). The IC50 values were determined by means of a 4-parameter fit using the company's own software.

[5] = tested on: HCT116; assay: Proliferation assay HCT116; assay type: cell-based; details: Homo sapiens, HCT-116, 96 h; HCT116, colon/rectum carcinoma; 4 days, crystal violet
Method: as §1, §2

[6] = target: T2, VEGF receptor tyrosine kinase-2 (VEGF-R2) (Homo sapiens, UniProt P35968); assay: VEGF receptor-2 kinase assay (Assay 3); assay type: biochemical; details: 8 μM ATP, poly-(Glu4Tyr), 10 min 22° C.; read-out: VEGF-R2 (Assay 3) Concentration for half-maximal inhibition of the enzyme activity, IC50
T2 construct: GST; made in house; host or cells: baculovirus-infected insect cells (Sf9)
T2 sequence (P35968 20-1356, species assumed): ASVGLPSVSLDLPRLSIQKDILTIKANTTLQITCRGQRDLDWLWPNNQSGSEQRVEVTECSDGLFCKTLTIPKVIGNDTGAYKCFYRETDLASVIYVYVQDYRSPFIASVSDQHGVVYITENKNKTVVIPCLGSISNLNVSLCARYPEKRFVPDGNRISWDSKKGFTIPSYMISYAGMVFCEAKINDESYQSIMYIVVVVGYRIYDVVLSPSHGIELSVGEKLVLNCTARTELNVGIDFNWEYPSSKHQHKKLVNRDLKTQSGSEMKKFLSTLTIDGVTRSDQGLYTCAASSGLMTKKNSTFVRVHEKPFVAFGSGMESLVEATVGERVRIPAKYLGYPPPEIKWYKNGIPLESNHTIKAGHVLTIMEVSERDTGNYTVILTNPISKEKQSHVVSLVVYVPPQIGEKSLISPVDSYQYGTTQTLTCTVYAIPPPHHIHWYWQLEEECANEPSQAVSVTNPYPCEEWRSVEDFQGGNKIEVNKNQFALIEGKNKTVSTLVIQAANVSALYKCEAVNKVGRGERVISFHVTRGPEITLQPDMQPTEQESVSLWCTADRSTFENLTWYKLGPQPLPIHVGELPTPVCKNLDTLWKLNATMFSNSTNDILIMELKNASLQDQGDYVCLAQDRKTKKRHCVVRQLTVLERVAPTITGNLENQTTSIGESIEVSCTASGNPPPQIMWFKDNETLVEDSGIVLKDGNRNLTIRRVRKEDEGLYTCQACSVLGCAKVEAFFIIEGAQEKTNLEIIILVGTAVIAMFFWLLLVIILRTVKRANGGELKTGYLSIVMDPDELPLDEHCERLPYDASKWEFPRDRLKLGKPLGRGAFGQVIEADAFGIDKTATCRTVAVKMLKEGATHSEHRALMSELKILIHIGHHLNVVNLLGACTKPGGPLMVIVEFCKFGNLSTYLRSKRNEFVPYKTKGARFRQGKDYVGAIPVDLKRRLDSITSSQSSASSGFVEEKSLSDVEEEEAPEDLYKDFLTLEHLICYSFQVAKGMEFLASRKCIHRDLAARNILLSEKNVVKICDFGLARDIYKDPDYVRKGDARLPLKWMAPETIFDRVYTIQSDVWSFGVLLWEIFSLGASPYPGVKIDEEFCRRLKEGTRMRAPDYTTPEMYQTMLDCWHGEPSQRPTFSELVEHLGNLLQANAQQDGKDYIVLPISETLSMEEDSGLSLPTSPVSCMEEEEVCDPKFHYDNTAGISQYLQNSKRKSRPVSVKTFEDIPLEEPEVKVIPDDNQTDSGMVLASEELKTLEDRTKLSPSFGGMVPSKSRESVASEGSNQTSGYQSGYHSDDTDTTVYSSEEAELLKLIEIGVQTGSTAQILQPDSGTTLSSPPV

[7] = tested on: HeLa-MaTu-ADR; assay: Proliferation assay HeLa-MaTu-ADR; assay type: cell-based, human; details: cervix carcinoma, 4 days, crystal violet
How it was run: (§3)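 Human tumour cells plated 1000 to 5000 cells/well, treated after 24 h with compound (0.01-30 μM, 0.5% DMSO) for 4 days. Growth by crystal violet staining read at 595 nm, normalised to zero-point plate and untreated cells; IC50 from 4-parameter fit.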

[8] = tested on: DU145; assay: Proliferation assay DU145; assay type: cell-based, human; details: DU145, prostate carcinoma, 4 days, crystal violet
How it was run: as §3

[9] = tested on: NCI-H460; assay: Proliferation assay NCI-H460; assay type: cell-based, human; details: NCI-H460, non-small-cell bronchial carcinoma, 4 days, crystal violet
How it was run: as §3

Row | IC50 [1] | IC50 [2] | IC50 [3] | IC50 [4] | IC50 [5] | IC50 [6] | IC50 ([7]; Homo sapiens, 96 h) | IC50 ([8]; Homo sapiens, DU-145, 96 h) | IC50 ([9]; Homo sapiens, NCI-H460, 96 h) | IC50 [7] | IC50 [8] | IC50 [9] | SMILES
1 | 27 nM | 13 nM | 23 nM | 4 nM | 16 nM | 281 nM |  |  |  |  |  |  | C[C@@H](O)[C@@H](C)Oc1nc(Nc2ccc(S(C)(=N)=O)cc2)ncc1C(F)(F)F (single isomer, unassigned) [Example 2-SI-2]
2 | < 10 nM | 33 nM | < 10 nM | 6 nM | 20 nM | 46 nM | 16 nM | 31 nM | 16 nM |  |  |  | C[C@@H](O)[C@@H](C)Nc1nc(Nc2ccc(S(=N)(=O)C3CC3)cc2)ncc1C(F)(F)F (mixture of isomers) [Example 4-SI-1, (RS)—S-Cyclopropyl-S-(4-{[4-{[(1R,2R)-2-hydroxy-1-methylpropyl]amino}-5-(trifluoromethyl)-pyrimidin-2-yl]amino}phenyl)sulfoximide]
3 |  |  |  |  |  |  |  |  |  | 7 nM | 9 nM | 16 nM | C[C@@H](O)[C@@H](C)Oc1nc(Nc2ccc(S(C)(=N)=O)cc2)ncc1C(F)(F)F (mixture of isomers) [Example 2-SI-2, (RS)—S-(4-{[4-{[(1R,2R)-2-Hydroxy-1-methylpropyl]oxy}-5-(trifluoromethyl)pyrimidin-2-yl]-amino}phenyl)-S-methylsulfoximide]
